Values of other authors, collected in patent US20140093563A1, “FEBUXOSTAT COMPOSITIONS” (RANBAXY LABORATORIES LIMITED, priority 2011, published 2014).

- Solubility (BCS): low solubility
SMILES: Cc1nc(-c2ccc(OCC(C)C)c(C#N)c2)sc1C(=O)O [febuxostat, 2-(3-cyano-4-isobutyloxyphenyl)-4-methyl-5-thiazolecarboxylic acid]
